24 compounds from PubChem BioAssay AID248 (DTP/NCI, 2004) can be followed below.

The assay concerns L1210 leukemia ip in BDF1 mice, survival T/C. Nature of the assay: NCI In Vivo Anticancer Drug Screen. Data for tumor model L1210 Leukemia (intraperitoneal) in B6D2F1 (BDF1) mice. Particulars: endpoint: mean survival time, higher = longer survival. A digest of the protocol:
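Transplantable tumor model; survival measured in treated vs vehicle control mice. Value = treated/control.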

[1] abbreviates: dose: 100.0 mg/kg/injection, schedule: Q01DX009 (ip), vehicle: saline with Tween-80.
Setting [2] is: dose: 100.0 mg/kg/injection, schedule: Q04DX002 (ip), vehicle: saline with Tween-80.
[3] abbreviates: dose: 100.0 mg/kg/injection, schedule: Q04DX003 (ip), vehicle: saline with Tween-80.
The mark [4] stands for this setting: dose: 200.0 mg/kg/injection, schedule: Q01DX009 (ip), vehicle: saline with Tween-80.
The mark [5] stands for this setting: dose: 200.0 mg/kg/injection, schedule: Q04DX002 (ip), vehicle: saline with Tween-80.
The mark [6] stands for this setting: dose: 200.0 mg/kg/injection, schedule: Q04DX003 (ip), vehicle: saline with Tween-80.
Setting [7] is: dose: 400.0 mg/kg/injection, schedule: Q01DX009 (ip), vehicle: saline with Tween-80.
[8] abbreviates: dose: 400.0 mg/kg/injection, schedule: Q04DX002 (ip), vehicle: saline with Tween-80.
Setting [9] is: dose: 400.0 mg/kg/injection, schedule: Q04DX003 (ip), vehicle: saline with Tween-80.
[10] abbreviates: dose: 100.0 mg/kg/injection, schedule: Q01DX009 (ip), vehicle: saline.
The mark [11] stands for this setting: dose: 200.0 mg/kg/injection, schedule: Q01DX009 (ip), vehicle: saline.
The mark [12] stands for this setting: dose: 100.0 mg/kg/injection, schedule: Q01DX009 (ip), vehicle: Klucel (hydroxypropylcellulose) (HPC).
[13] abbreviates: dose: 200.0 mg/kg/injection, schedule: Q01DX009 (ip), vehicle: Klucel (hydroxypropylcellulose) (HPC).
[14] abbreviates: dose: 400.0 mg/kg/injection, schedule: Q01DX009 (ip), vehicle: Klucel (hydroxypropylcellulose) (HPC).
Setting [15] is: dose: 200.0 mg/kg/injection, schedule: Q04DX003 (ip), vehicle: saline.
Where [16] appears, read: dose: 400.0 mg/kg/injection, schedule: Q04DX003 (ip), vehicle: saline.
Where [17] appears, read: dose: 400.0 mg/kg/injection, schedule: Q01DX009 (ip), vehicle: saline.
[18] abbreviates: dose: 100.0 mg/kg/injection, schedule: Q01DX001 (ip), vehicle: saline.
[19] abbreviates: dose: 100.0 mg/kg/injection, schedule: Q04DX002 (ip), vehicle: Klucel (hydroxypropylcellulose) (HPC).
Setting [20] is: dose: 200.0 mg/kg/injection, schedule: Q04DX002 (ip), vehicle: Klucel (hydroxypropylcellulose) (HPC).
Where [21] appears, read: dose: 400.0 mg/kg/injection, schedule: Q04DX002 (ip), vehicle: Klucel (hydroxypropylcellulose) (HPC).

“And” between values parts separate entries of the source, which are not always exact repeats. Identical values can stand only once. Toxic doses and inconclusive results are not listed.

`COc1ccc([N+](=O)[O-])cc1NS(=O)(=O)c1cccc([N+](=O)[O-])c1`: the T/C reads like this: (dose: 100.0 mg/kg/injection, schedule: Q01DX001 (ip), vehicle: saline with Tween-80) 95 % of control; under setting [1], 89 % of control and 92 % of control; under setting [2], 97 % of control and 101 % of control; under setting [3], 97 % of control; (dose: 200.0 mg/kg/injection, schedule: Q01DX001 (ip), vehicle: saline with Tween-80) 91 % of control; under setting [4], 92 % of control. Moreover, the T/C reads like this: under setting [5], 95 % of control and 97 % of control; under setting [6], 97 % of control; (dose: 400.0 mg/kg/injection, schedule: Q01DX001 (ip), vehicle: saline with Tween-80) 91 % of control; under setting [7], 106 % of control; under setting [8], 94 % of control and 101 % of control; under setting [9], 90 % of control.

As for `O=C(O)C(Br)Cc1cnc[nH]1` (stereo not drawn), the T/C reads like this: (dose: 50.0 mg/kg/injection, schedule: Q01DX009 (ip), vehicle: saline) 106 % of control; under setting [10], 106 % of control; under setting [11], 98 % of control.

On to `COc1ccc([N+](=O)[O-])cc1NC(=O)COc1cc(Cl)c(Cl)cc1Cl`, for which the T/C reads like this: under setting [12], 94 % of control; under setting [13], 108 % of control; under setting [14], 94 % of control.

Regarding `Clc1nnc(Nc2ccccc2)c2ccccc12`, the T/C is 96 % of control under setting [12], 93 % of control under setting [13], 93 % of control under setting [15] and 91 % of control under setting [16].

`O=C(COc1ccc(Cl)cc1Cl)Oc1c(Cl)c(Cl)c(Cl)c(Cl)c1Cl`: the T/C under setting [1] was 88 % of control; the T/C under setting [3] was 91 % of control; the T/C under setting [4] is 88 % of control; the T/C under setting [6] was 92 % of control; the T/C under setting [7] is 92 % of control; the T/C under setting [9] was 86 % of control.

For the compound `C=CCCCCCCCCC(=O)NC(C)C(C)(C)C` (stereo not drawn), the T/C under setting [3] was 87 % of control and the T/C under setting [6] is 98 % of control.

As to `COc1ccc(-n2c(O)c(N=Nc3ccc(Br)cc3)c(=O)n(-c3ccccc3)c2=S)cc1`, the T/C was 102 % of control (dose: 50.0 mg/kg/injection, schedule: Q01DX001 (ip), vehicle: Klucel (hydroxypropylcellulose) (HPC)); 104 % of control (dose: 100.0 mg/kg/injection, schedule: Q01DX001 (ip), vehicle: Klucel (hydroxypropylcellulose) (HPC)); 100 % of control (dose: 200.0 mg/kg/injection, schedule: Q01DX001 (ip), vehicle: Klucel (hydroxypropylcellulose) (HPC)).

In the case of `O=[P+](O)c1ccccc1`, the T/C under setting [10] is 94 % of control; the T/C (dose: 100.0 mg/kg/injection, schedule: Q04DX003 (ip), vehicle: saline) was 103 % of control; the T/C under setting [11] is 100 % of control; the T/C under setting [15] is 98 % of control; the T/C under setting [17] is 100 % of control; the T/C under setting [16] was 101 % of control.

As to `Cc1sc2c(c1-c1ccccc1)C(=O)CCCN2`, the T/C under setting [3] is 94 % of control, the T/C under setting [6] was 100 % of control and the T/C under setting [9] is 100 % of control.

On to `CCOC(=O)CCC(NC(=O)c1cc(Cl)c(N(CC)Cc2cnc3nc(N)nc(N)c3n2)c(Cl)c1)C(=O)OCC` (stereo not drawn), for which the T/C (dose: 25.0 mg/kg/injection, schedule: Q01DX009 (ip), vehicle: Klucel (hydroxypropylcellulose) (HPC)) is 179 % of control.

Turning to `CC1(C)Cc2ccccc2C1=O`, the T/C under setting [2] was 97 % of control, the T/C under setting [5] was 91 % of control and the T/C under setting [8] was 94 % of control.

As for `O=CNc1ccccc1[N+](=O)[O-]`, the T/C is, setting by setting: under setting [3], 94 % of control; under setting [6], 94 % of control.

With `CCOC(=O)c1n[nH]c2ccccc12`, the T/C reads like this: under setting [2], 101 % of control; under setting [5], 106 % of control; under setting [8], 97 % of control.

As for `CCCCNC(=O)n1nnc2ccccc21`, the T/C by setting is: under setting [2], 100 % of control and 103 % of control; under setting [5], 105 % of control and 92 % of control; under setting [8], 96 % of control and 116 % of control.

As to `COC1CC(OS(=O)(=O)c2ccc(C)cc2)C(O)C(C)O1` (stereo not drawn), the T/C by setting is: under setting [18], 103 % of control; under setting [1], 96 % of control; under setting [3], 100 % of control; (dose: 200.0 mg/kg/injection, schedule: Q01DX001 (ip), vehicle: saline) 94 % of control; under setting [4], 94 % of control; under setting [6], 100 % of control. In addition, the T/C runs as follows: (dose: 400.0 mg/kg/injection, schedule: Q01DX001 (ip), vehicle: saline) 100 % of control; under setting [7], 96 % of control; under setting [9], 97 % of control.

Turning to `Cc1cccc(SC(=O)Cc2ccc([N+](=O)[O-])cc2)c1`, the T/C under setting [1] is 91 % of control; the T/C under setting [3] was 109 % of control; the T/C under setting [4] is 96 % of control; the T/C under setting [6] is 102 % of control; the T/C under setting [9] was 119 % of control.

On to `Cc1ccc(C(=O)N/N=C/c2ccc(Cl)cc2Cl)cc1`, for which the T/C by setting is: under setting [19], 100 % of control; under setting [20], 95 % of control; under setting [21], 95 % of control.

Consider `Cc1cccc(C)c1OC(=O)Nc1ccccc1Cl`, for which the T/C was 95 % of control under setting [19], 106 % of control under setting [20] and 103 % of control under setting [21].

In the case of `CCOC(=O)C(CC)(OC(C)=O)C(=O)C(O)C1c2nc3ccccc3cc2CN1C(=O)CCOCc1ccccc1` (stereo not drawn), the T/C (dose: 10.0 mg/kg/injection, schedule: Q07DX002 (ip), vehicle: alcohol) is 99 % of control; the T/C (dose: 20.0 mg/kg/injection, schedule: Q07DX002 (ip), vehicle: alcohol) was 101 % of control; the T/C (dose: 40.0 mg/kg/injection, schedule: Q07DX002 (ip), vehicle: alcohol) was 106 % of control; the T/C (dose: 80.0 mg/kg/injection, schedule: Q07DX002 (ip), vehicle: alcohol) is 94 % of control.

As for `CCCC1(CC)CNC(=O)NC1=O` (stereo not drawn), the T/C is, setting by setting: (dose: 100.0 mg/kg/injection, schedule: Q01DX Z (ip), vehicle: saline) 97 % of control; (dose: 200.0 mg/kg/injection, schedule: Q01DX Z (ip), vehicle: saline) 92 % of control.

In the case of `C[n+]1cccc(C=O)c1`, the T/C runs as follows: under setting [10], 100 % of control; under setting [11], 101 % of control; under setting [17], 100 % of control.

On to `CC(=O)Nc1ccc(C#N)c2ccccc12`, for which the T/C is 97 % of control under setting [12]; 102 % of control (dose: 100.0 mg/kg/injection, schedule: Q04DX003 (ip), vehicle: Klucel (hydroxypropylcellulose) (HPC)); 98 % of control under setting [13]; 102 % of control (dose: 200.0 mg/kg/injection, schedule: Q04DX003 (ip), vehicle: Klucel (hydroxypropylcellulose) (HPC)); 103 % of control under setting [14]; 97 % of control (dose: 400.0 mg/kg/injection, schedule: Q04DX003 (ip), vehicle: Klucel (hydroxypropylcellulose) (HPC)).

Regarding `CC12C=CC(=O)C=C1CCC1C2C(O)CC2(C)C1CCC2(O)C(=O)CSc1ncnc2nc[nH]c12` (stereo not drawn), the T/C was 92 % of control (dose: 60.0 mg/kg/injection, schedule: Q01DX015 (ip), vehicle: saline); 100 % of control (dose: 90.0 mg/kg/injection, schedule: Q01DX015 (ip), vehicle: saline); 112 % of control (dose: 100.0 mg/kg/injection, schedule: Q01DX001 (sc), vehicle: steriod suspending solution); 92 % of control (dose: 135.0 mg/kg/injection, schedule: Q01DX015 (ip), vehicle: saline); 112 % of control (dose: 200.0 mg/kg/injection, schedule: Q01DX001 (sc), vehicle: steriod suspending solution); 92 % of control (dose: 200.0 mg/kg/injection, schedule: Q01DX015 (ip), vehicle: saline). Besides, the T/C (dose: 400.0 mg/kg/injection, schedule: Q01DX001 (sc), vehicle: steriod suspending solution) was 97 % of control.

As to `COc1cccc(N=CN(C)C)c1`, the T/C by setting is: (dose: 50.0 mg/kg/injection, schedule: Q01DX001 (ip), vehicle: saline) 90 % of control; under setting [18], 104 % of control.
